The values that follow come from US7534766B2, “Glucuronide metabolites and epimers thereof of tigecycline” (Wyeth, priority 2004, dated 2009).

Data set [1] in a line: LC/MS characterization of tigecycline related compounds in human serum, urine and feces. The data set is classed as in vivo. The following applies: in vivo. From the text: Three HPLC conditions were used during LC/MS analysis in this study. LC/MS Condition 1 was used for the majority of sample analyses for metabolite characterization and to isolate metabolite M3a from urine. LC/MS Condition 2 was used on selected samples to increase the retention time of glucuronide metabolites and for a co-chromatography experiment to confirm the identity of metabolites M8 and M9. LC/MS Condition 3 was used to analyze the polar metabolite M3a isolated from human urine.
The UV detector was set to monitor 340-360 nm. […] The flow rate was 0.2 mL/min. […] The linear mobile phase gradient is shown below.
Separations were accomplished on a Phenomenex Luna C18(2) column (250×2.0 mm, 5 μm) with a Uniguard C18 guard column (10×2 mm) (ThermoHypersil-Keystone). The flow rate was 0.2 mL/min. […] Mobile phase A was 0.02% trifluoroacetic acid in water (v/v) and mobile phase B was 0.02% trifluoroacetic acid in acetonitrile (v/v). The linear mobile phase gradient is shown below.
A Micromass Quattro Ultima triple quadrupole mass spectrometer (Waters Corp.) was operated in the positive ionization mode. LC/MS analysis with electrospray ionization (ESI) was conducted using a Z-spray interface. ESI-MS analysis of individual fractions from selected samples was conducted by direct infusion into a nanospray interface. Settings for the mass spectrometer are listed below.
Urine and feces samples were analyzed for tigecycline metabolites by LC/MS/MS analysis for precursors of product ions characteristic of tigecycline. Additionally, potential metabolites of tigecycline were searched for in the LC/MS data based upon results from previous studies in animals and humans.
Serum extracts were analyzed for tigecycline and selected metabolites by LC/MS/MS in the selected reaction monitoring (SRM) mode (LC/SRM) to reduce interference from endogenous components. […] The following tigecycline related components were monitored.

The conditions of data set [2]: in vivo. As to the method: An open-label, inpatient, multiple-dose tigecycline, single-dose [^14C]tigecycline metabolic disposition and mass balance study was performed in six healthy male volunteers. The clinical protocol called for twelve subjects. Of these twelve, six received the radioactive dose (subjects 1, 4, 5, 6, 7, and 8 with subject 8 later dropping out of the study.) Eligible subjects were selected based on inclusion/exclusion criteria, medical history, physical examination and additional procedures outlined in the study protocol. Each subject received a 100 mg loading dose on the morning of Day 1, followed by a 50 mg maintenance dose every 12 hours for an additional 5 doses. On the morning of study Day 4, six subjects received a single 50 mg dose of [^14C]tigecycline (50 μCi). Each tigecycline dose was administered via a 30-minute intravenous infusion.
Serum samples were collected for metabolite profiling prior to tigecycline dosing and 1, 4, 8, 24 and 48 hours following the [^14C]-labeled dose. For metabolite profiling, urine samples were collected at 0-4, 4-8, 8-24 and 24-48 hours and fecal samples were collected up to 48 hours following the [^14C]-labeled dose. Serum and urine samples, and fecal homogenates were shipped on dry ice to the Biotransformation Division of Drug Safety and Metabolism, Wyeth Research, Collegeville, Pa. The details of the sample collection and sample storage are described in the mass balance portion of the study. The 24-48 hour urine and fecal samples for subject #6 were incomplete since the subject withdrew from the study. While samples from this subject were used for metabolite profiling, the samples were not included in the mass balance calculations.
Urine samples for metabolite profiling were extracted, as discussed below, using a method previously developed and used for rat and dog urine samples. Urine samples that had been collected at various intervals up to 48 hours following the dose of [^14C]tigecycline were thawed on ice prior to extraction. Aliquots (1 mL) of the individual urine samples were transferred to clean tubes and 0.2 M EDTA, for a final concentration of 40 mM EDTA, was added. […] Samples were mixed, centrifuged and the supernatants analyzed for metabolites by HPLC radiochromatography with selected samples also analyzed by LC/MS.
HPLC analyses were performed using a Waters 2695 Alliance Separation Module (Waters Corp., Milford, Mass.), a Waters Model 2487 dual wavelength UV absorbance detector, set to monitor 350 nm, and was in-line with a Gilson 215 liquid handler (Gilson, Middleton, Wis.) equipped to collect fractions at 20 second intervals. Fractions were collected into 96-well deep well Luma plates and analyzed using TopCount NXT. The autosampler temperature was set to 4° C. […]

A short description of data set [3]: LC/MS detection of tigecycline metabolites in CD-1 mouse serum and urine after intravenous tigecycline. The following applies: mouse, in vivo, iv, 5 mg/kg. As to the method:
Fifteen male CD-1 mice, with an average weight of 31.3 g at the time of dosing, were used. Animals were given food and water ad libitum. Mice in the 0.5 and 2 hour blood collection groups were housed in standard cages, while those in the 4 hour blood collection group were housed in metabolism cages for the collection of urine. Mice were dosed by the Bioresources Department at Wyeth Research, Collegeville, Pa.
For mice and rabbits, the intravenous dosing solutions was prepared by dissolving 50 mg of tigecycline in 5.0 mL of 0.9% sterile saline solution to make a working stock solution. The working stock solution was diluted with 0.9% sterile saline solution to 0.5 mg/mL for mice and 4 mg/mL for rabbits. The mouse dose (5 mg/kg, 10 mL/kg) was administered as a bolus injection via the tail vein. The rabbit dose (4 mg/kg, 1 mL/kg) was administered as a bolus injection via the marginal vein of the ear.
For mice (n=5/time point), blood (approximately 0.7 mL) was collected by cardiac puncture at 0.5, 2 and 4 hours following administration of tigecycline. For rabbits, blood (approximately 7 mL) was collected via the ear vein at 0.5, 2 and 6 hours following the tigecycline dose. Serum was separated following clot formation at room temperature and centrifugation for 15 minutes at 4° C. and 3000 rpm. The serum was transferred to a fresh tube and was stored at approximately −70° C. until analysis as described below under “Serum Sample Preparation for LC/MS Analysis. In addition, urine was collected from mice in the 4 hour blood collection group and was stored at approximately −70° C. until analysis, as described below under “Urine Sample Preparation for LC/MS Analysis.”
Mouse urine was thawed and an aliquot (1 mL) transferred to a fresh tube. The sample was centrifuged at 14,000 rpm and room temperature for 10 minutes using a Model 5415C Eppendorf centrifuge (Brinkmann Instruments, Westbury, N.Y.) to remove any particulates. The sample was then transferred to a fresh tube and was analyzed by LC/MS, as described below under “Liquid Chromatography/Mass Spectrometry Analysis.”.
Mouse and rabbit serum samples were pooled at each collection time and analyzed for tigecycline, its epimer, tigecycline glucuronide (M7 and its epimer M6), 9-aminominocycline (M3) and N-acetyl-9-aminominocycline (M9 and its epimer M8). Aliquots of serum (500 μL) were transferred to new tubes and deuterated tigecycline (30 ng/mL final concentration) was added as an internal standard (quantitative analysis only). EDTA (40 μL of 0.5 M EDTA) was added to each sample and the samples vortex mixed. Acetonitrile (500 μL) was added to each sample, samples were vortex mixed and denatured protein separated by centrifugation at 14,000 rpm and room temperature for 10 minutes using a Model 5415C Eppendorf centrifuge (Brinkmann Instruments). The supernatant was transferred to a fresh tube and the solvent evaporated under a stream of nitrogen using a Turbovap Model LV evaporator (Caliper Life Sciences, Hopkinton, Mass.).
The HPLC system used for mass spectrometric analysis was a Waters Alliance Model 2695 HPLC system (Waters Corp., Milford, Mass.). It was equipped with a built-in autosampler and a Model 996 diode array UV detector. The UV detector was set to monitor 210-400 nm. Separations for metabolite characterization were accomplished on a Phenomenex Luna C18(2) column (150×2.1 mm, 5 μm) (Phenomenex, Torrance, Calif.) equipped with a Keystone Uniguard C18 guard column (10×2.1 mm) (Thermo Electron Corp., Bellefonte, Pa.). The column temperature was 25° C. The flow rate was 0.2 mL/min. Mobile phase A was 10 mM ammonium acetate in water and mobile phase B was acetonitrile.

Data set [4] in a line: Tigecycline metabolites identified in CD-1 mouse serum and urine and rabbit serum samples (LC/MS). The data set is classed as in vivo. Conditions: in vivo, iv. As to the method: The column temperature was 25° C. The flow rate was 0.2 mL/min. […] Gradient 1 was used for metabolite identification (qualitative analysis).
LC/MS analysis was conducted on extracts of serum and from CD-1 mice and rabbits, and on urine from CD-1 mice. The mass spectral data for tigecycline and its metabolites are discussed below.

As for `CC(=O)Nc1cc(N(C)C)c2c(c1O)C(=O)C1=C(O)[C@]3(O)C(=O)C(C(N)=O)=C(O)[C@H](N(C)C)[C@@H]3C[C@@H]1C2` (single isomer, unassigned) [Metabolite M8, epimer of N-acetyl-9-aminominocycline], in data set [1], the “relative amount in human serum based on LC/MS data” value was “minor metabolites” and the “relative amount in human urine based on LC/MS data” value was “minor metabolites”.

With Hydroxy Tigecycline [Metabolite M1], in data set [1], the “relative amount in human urine based on LC/MS data” value is reported as “trace amounts”. Moreover, the “percent of the radioactivity in urine” value in data set [2] is recorded as “less than 1%”.

In the case of `CN(C)c1cc(N)c(O)c2c1C[C@H]1C[C@H]3[C@H](N(C)C)C(=O)C(C(N)=O)=C(O)[C@@]3(O)C(=O)C1=C2O` [Metabolite M3, 9-aminominocycline], in data set [1], the “relative amount in human serum based on LC/MS data” value is “minor metabolites” and the “relative amount in human urine based on LC/MS data” value is on record as “minor metabolites”. Moreover, the “observed in mouse urine by LC/MS” value in data set [3] was “detected”. For the same compound, the “Species and matrix in which identified” value in data set [4] is recorded as “R-S, M-S, M-U”.
